Measured values as given in patent US6673785B1, “Use of hepoxilins or hepoxilin analogs as antidiabetics, antiinflammatory agents” (priority 1999, dated 2004).

Legend:
[1] = test system: bleomycin-induced lung fibrosis; experiment: Bleomycin-induced lung injury mouse model; type: in vivo; details: for inhibition of bleomycin-evoked lung fibrosis, relative potency: 200 μg/mouse bleomycin, various concentrations
Method: Mice were divided into 7 groups, each containing 5 animals. All groups were administered i.p. saline+7% ethanol as vehicle. Group 1 received only vehicle. Groups 2-7 received intratracheal bleomycin. Bleomycin is an antibiotic having antineoplastic activity. It is used clinically to treat malignancies such as lymphoma and testicular cancer. However, it has several side effects such as causing lung fibrosis characterized by diffuse alveolar hemorrhage and marked accumulation of inflammatory cells and an increase in collagen synthesis. Additionally, Group 3 received Trolox antioxidant, Group 4 received H1, Group 5 received H2, Group 6 received H3, and Group 7 received H4. All hepoxilins were dissolved in 7 μl ethanol and diluted to 100 μl saline for i.p. administration. All compounds were administered daily at the dose of 100 μg/20 g (5000 μg/kg) mouse for 8 days. Lungs from all animals were perfused and fixed for histology. […] As in section B1 above, the effective concentration of the drugs is unknown due to the still undetermined uptake and distribution in the body. The present study served as an indicator of biological activity in vivo. The study was also conducted using saline or 200 μg/mouse bleomycin. In these studies the hepoxilin analogs H1 and H2 were administered in various concentrations (FIGS. 14A-14E). […] Lung fibrosis was associated with increased collagen synthesis (FIGS. 15A, 15B). […] Collagen staining was done using sirius red and fast green.

[2] = test system: bleomycin-evoked vascular permeability; experiment: Bleomycin-evoked skin vascular permeability (Evans Blue); type: in vivo; details: 100 ng intradermally, bleomycin 12 μg
Method: H1 and 2 blocked the bleomycin (12 μg)—evoked vascular permeability at 100 ng intradermally. (FIGS. 18 and 19). Vascular permeability was measured using Evans Blue I.V. Hepoxilin analogs were intradermally applied and within 30 minutes, a formamide extraction of punched skin was done. Extraction and absorbance was read at 620 nm.

[3] = test system: human neutrophils; experiment: Rise in intracellular calcium in INDO-1AM loaded neutrophil suspensions, normal vs Type 1 diabetic; type: cell-based
From the text: It was previously reported that the native HX cause a rise in intracellular calcium in suspensions of human neutrophils. […] In view of the findings reported above on alterations in the hepoxilin binding protein in diabetes, it was investigated whether the response to varied amounts of hepoxilin in terms of calcium release was altered in Type 1 diabetic neutrophils. This involved measurement of the rise in intracellular calcium in INDO-1AM loaded neutrophil suspensions spectrofluorometrically after addition of HxA3.
Normal and diabetic neutrophils were compared to 4 concentrations of HxA3, i.e. 100, 200, 500 and 1000 ng added in 1 μl DM50 to 2×10^6 cells/ml. […] Additional data was obtained by administering 1000 ng of hepoxilin five minutes after the first test. Previous results with normal neutrophils have shown that the response to a second addition of hepoxilin is blunted depending on the extent of calcium rise in the first test. […]
(§1) Intracellular free calcium concentrations were monitored continuously in a Perkin-Elmer fluorescence spectrophotometer (Model 65040) using Indo-I AM-loaded neutrophils. […]
(§2) Unloaded dye was removed by centrifugation and the cells were resuspended in fresh RPMI 1640(1 mL). […] The resulting effect was recorded on a chart recorder (LKB model 2210, Pharmacia, Sweden) at 1 cm/min chart speed for the next 5 min (FIG. 20).

[4] = test system: human neutrophils; experiment: HxA3-induced rise in intracellular calcium in neutrophils with internalised GTP-γ-S or GTP; type: cell-based; details: for effect of internalised nucleotide on HxA3-induced rise in intracellular calcium: approximate cytosolic concentration 21 μM
From the text: (§3) For measurement of intracellular calcium, the cells were centrifuged and loaded with INDO-1 AM (see Methods for details). The change in intracellular calcium was monitored with fluorescence spectrophotometer at 331 nm excitation and 410 nm emission. […] Data represents the Mean±SD (n=4 separate experiments).
(§4) The method of Jaconi et al (1993, J. Biol. Chem. 268, 26077-26078] was employed with modifications to incorporate GTP-γ-S or GTP into human neutrophils. Specifically, 20×10^6 cells were incubated in 100 μl of sucrose-rich (500 mM) buffer containing in mM: NaCl 140, KCl 5, MgCl2 1, Hepes sodium-free 10, glucose 10, and EGTA 1, 10% polyetylene glycol 1000, pH 7.3. The buffer either contained nothing else (control) or GTP-γ-S (50 mM) or GTP (50 mM). The cells were incubated for 15 min at 37° C. to allow fluid-phase endocytosis of extracellular material. The cells were hypotonically shocked during 2 min at 37° C. by the addition of 1 mL of hypotonic medium made up of 1 part normal medium and 0.66 parts of water [Hallet & Campbell. 1983, Immunology, 50, 487-495]. The cells were then centrifuged at 900 rpm×5 min and resuspended in 2 mL of calcium-free assay medium for the binding studies or in RPMI 1640 for the calcium measurements. […] The particulate matter was sedimented through centrifugation and fluorescence in the supernatant was measured in a fluorescence spectrophotometer and 430 nm excitation, 540 nm emission using dilutions of the dye as standard. While unshocked neutrophils contained virtually no fluorescence above background, the shocked cells contained approximately 24 ng dye/4×10^6 cells. […]
as §1, §2

[5] = test system: hepoxilin binding protein in neutrophils; experiment: Binding of [3H]-HxA3 (8S) to neutrophils with internalised GTP-γ-S or GTP; set-up: species or system human; details: approximate cytosolic concentration 21 μM
From the text: as §3
as §4, with “487-495].” for “487-495]. The cells were then centrifuged at 900 rpm×5 min and resuspended in 2 mL of calcium-free assay medium for the binding studies or in RPMI 1640 for the calcium measurements.”, “standard.” for “standard. While unshocked neutrophils contained virtually no fluorescence above background, the shocked cells contained approximately 24 ng dye/4×10^6 cells.”

Question: How did the “inhibition of bleomycin-evoked lung fibrosis, relative potency” value [1] turn out when CCCCC/C=C\CC1CC1/C=C/[C@@H](O)C/C=C\CCCC(=O)OC (stereo partly drawn) [H1, 8(S)-hydroxy-11 ,12-cyclopropyl-eicosa-5Z, 10E, 14Z-trienoic acid methyl ester] was run?
Answer: most potent

Question: What about the “dose dependence of activity against lung fibrosis” value ([1]; 400 μg/kg, 2 mg/kg, 4 mg/kg) of the same molecule?
Answer: dose dependent

Question: What about the “potency against lung fibrosis compared with Amifostine and Trolox” value ([1]; Amifostine 200 mg/kg, Trolox 30 mg/kg) of the same molecule?
Answer: more potent than Amifostine (200 mg/kg) or Trolox (30 mg/kg)

Question: And the “threshold activity against lung fibrosis” value ([1]; i.p.)?
Answer: 400 µg/kg

Question: What about the bleomycin-evoked vascular permeability [2] of the same molecule?
Answer: blocked

Question: Which results are given for CCCCC/C=C\C[C@@H]1O[C@H]1/C=C/C(O)C/C=C\CCCC(=O)O (stereo partly drawn) [HxA3, 8(S,R)-hydroxy-11(S),12(S)-epoxy-eicosa-5Z, 9E, 14Z-trienoic acid]?
Answer: calcium response to second addition, diabetic vs normal neutrophils ([3]; 1000 ng five minutes after the first test): more inhibition; rise in intracellular free calcium, diabetic vs normal neutrophils ([3]; 100, 200, 500 and 1000 ng in 1 μl to 2×10^6 cells/ml): diabetic neutrophils are more responsive; change in intracellular calcium ([4]; 2×10^6 cells in 1 mL calcium-free buffer, 37° C.): rapid rise in intracellular calcium

Question: How did the “effect of internalised nucleotide on HxA3-induced rise in intracellular calcium” value [4] turn out when Nc1nc2c(ncn2[C@@H]2O[C@H](COP(=O)(O)OP(=O)(O)OP(=O)(O)O)[C@@H](O)[C@H]2O)c(=O)[nH]1 [GTP] was run?
Answer: no significant change

Question: How did the “inhibition of bleomycin-evoked lung fibrosis, relative potency” value [1] turn out when CCCCC/C=C\CC1CC1/C=C/[C@H](O)C/C=C\CCCC(=O)OC (stereo partly drawn) [H2, 8(R)hydroxy-11,12-cyclopropyl-eicosa-5Z, 10E, 14Z-trienoic acid methyl ester] was run?
Answer: most potent

Question: And the bleomycin-evoked vascular permeability [2]?
Answer: blocked

Question: What does the source list for Nc1nc2c(ncn2[C@@H]2O[C@H](COP(=O)(O)OP(=O)(O)OP(O)(O)=S)[C@@H](O)[C@H]2O)c(=O)[nH]1 [GTP-γ-S]?
Answer: effect of internalised nucleotide on HxA3-induced rise in intracellular calcium [4]: inhibition; effect of internalised nucleotide on binding of [3H]-HxA3 [5]: inhibition
